According to article PMC5430407 (ACS Medicinal Chemistry Letters, 2017):

Columns and labels:
Caco-2 cells = experiment: Caco-2 permeability; format: in vitro ADME; settings: A-B, 50 µM, 120 min
IDO1 in HeLa cells = IDO1 in HeLa cells (Homo sapiens, UniProt P14902); experiment: HeLa cell-based IDO1/kynurenine assay; settings: calculated using HeLa pIC50; for LLE (lipophilic ligand efficiency): LLE = pIC50 – cLogP
[1] = system: CEREP panel of over 50 receptors and enzymes; experiment: CEREP panel
[2] = 28-day IND toxicology study in mice; format: in vivo, mouse
plasma kynurenine = experiment: PK/PD study in mice, plasma kynurenine; format: in vivo, mouse; settings: wild-type mice, once daily oral dosing at 50 mg/kg
[3] = 28-day IND toxicology study in dogs; format: in vivo, dog
[4] = Allometric scaling, predicted human dose; settings: allometric scaling to cover the WB IC50 at trough
CT26 tumor = CT26 tumor growth in immune-compromised mice; format: in vivo, mouse; settings: immune-compromised mice (nu/nu)

Chain of IDO1 in HeLa cells (P14902 whole entry): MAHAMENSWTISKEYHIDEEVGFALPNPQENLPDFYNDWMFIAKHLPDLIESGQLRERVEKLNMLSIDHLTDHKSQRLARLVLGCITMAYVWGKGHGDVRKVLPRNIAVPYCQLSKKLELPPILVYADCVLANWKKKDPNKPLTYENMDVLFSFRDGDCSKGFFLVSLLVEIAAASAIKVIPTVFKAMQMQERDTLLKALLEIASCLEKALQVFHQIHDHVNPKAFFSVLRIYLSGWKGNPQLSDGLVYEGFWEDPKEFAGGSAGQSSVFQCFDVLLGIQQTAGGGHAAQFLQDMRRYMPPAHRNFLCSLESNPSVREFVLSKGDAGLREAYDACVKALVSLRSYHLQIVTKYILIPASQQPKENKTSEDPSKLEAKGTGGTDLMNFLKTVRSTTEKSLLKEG

Row | SMILES | Caco2 Pm (Caco-2 cells) | LE (ligand efficiency) (IDO1 in HeLa cells) | also measured
1 | COCCNc1nonc1/C(=N/O)Nc1ccc(F)c(Br)c1 [Compound 4a] | 44 × (10)^−6 cm/s | 0.45 | –
2 | OCCNc1nonc1/C(=N/O)Nc1ccc(F)c(Br)c1 [Compound 4b] | 31 × (10)^−6 cm/s | 0.51 | LLE (lipophilic ligand efficiency) (IDO1 in HeLa cells): 5.8
3 | NCCNc1nonc1/C(=N/O)Nc1ccc(F)c(Br)c1 [Compound 4c] | 1.8 × (10)^−6 cm/s | 0.47 | –
4 | CC(=O)NCCNc1nonc1/C(=N/O)Nc1ccc(F)c(Br)c1 [Compound 4d] | 19 × (10)^−6 cm/s | 0.45 | –
5 | CS(=O)(=O)NCCNc1nonc1C(=NO)Nc1ccc(F)c(Br)c1 [Compound 4e] | – | – | LLE (lipophilic ligand efficiency) (IDO1 in HeLa cells): 5.8
6 | NS(=O)(=O)NCCNc1nonc1C(=NO)Nc1ccc(F)c(Br)c1 [Compound 4f, epacadostat] | – | – | in vitro toxicology result, CEREP panel [1]: clean; tolerability [2]: well-tolerated; plasma kynurenine level reached (basal level of IDO null mice) (plasma kynurenine): ~400 nM; tolerability [3]: well-tolerated; predicted oral dosing in humans [4]: 50 mg twice-a-day; tumor growth inhibition, treated vs control animals (CT26 tumor): no difference
7 | NS(=O)(=O)NCCNc1nonc1C(=NO)Nc1ccc(F)c(Cl)c1 [Compound 4g] | 4.3 × (10)^−6 cm/s | – | –
